Experimental data reported in paper PMC12771125, “Compounds Reducing Human Sperm Motility as Potential Nonhormonal Contraceptives Identified Using a High-Throughput Phenotypic Screening Platform” (ACS Omega, 2025).
≈ marks a conversion by molar mass, not a printed value. Where two headings read alike, the source gives them in different places. Blank lines part the entries; values can stand above or below the compound they belong to.

How the values were obtained:
human sperm = test: Reduction of sperm motility (RSM) high-throughput phenotypic assay; type: cell-based; conditions: Homo sapiens, reduction of progressive sperm motility relative to control
Description: Using our previously established phenotypic human sperm motility screening platform, we screened a large subset (62,621 compounds) of one of our in-house diversity libraries (National Phenotypic Screening Centre (NPSC) Diversity Set) (Figure A,B). Briefly, human sperm are collected, isolated from semen, distributed into 384-well plates with test compounds, time-lapse images of sperm movement are recorded using a high-content imager, and progressive motility parameters are calculated using custom data analysis software. Sperm motility is complicated, and the mechanisms underpinning its regulation are not fully understood. Progressive motility, which is a measurement of the movement of forward progression of sperm, is most closely linked to sperm quality, and the percentage of progressively motile sperm compared to control is therefore the parameter utilized during the work described in this paper. […]
We used an HTS screening platform to assess the motility of live human spermatozoa. The platform and its development are described in detail in Gruber et al. , and summarized below in brief. The platform was used to screen compound libraries specifically focusing on reduction in motility. Interesting compounds were examined in further detail as possible starting points for a medicinal chemistry program. The experimental design is illustrated in Figure .
Donors were local to the Dundee area, over the age of 18, and had no known fertility problems and normal sperm concentration, motility and semen characteristics according to WHO 2021 criteria. Special category personal data for donors, such as ethnic origin, was not recorded in accordance with ethical approval and UK GDPR. Samples were obtained by masturbation, after sexual abstinence of 2–5 days, and delivered to the research laboratory within one h of production. Samples were allowed to liquefy at 37 °C for 15–30 min prior to preparation by discontinuous density gradient centrifugation (DGC). […] A minimum of 3 prepared donor samples were routinely pooled to reduce donor-to-donor variability for primary screening assays. Pooled samples were incubated for 3 h at 37 °C under noncapacitating conditions.
In brief, screening batches of cells were transferred to a robotic platform (HighRes Biosolutions Inc.) and maintained during the screen at 37 °C at 5% CO2. Assay-ready 384-well plates containing compounds were prepared prior to the screen and filled with approximately 10,000 spermatozoa (20 μL) per well using a liquid handling system (MultiDrop Combi; ThermoFisher). These plates were incubated for 10 min prior to imaging. The HTS system utilized a Yokogawa CV7000 Cell Voyager high-throughput microscope to record time-lapse images from 2 positions in each well. An adaptation of a tracking algorithm, Trackpy v0.4.1 was utilized to track individual spermatozoa within each well and obtain kinematic parameters. Within the compound-test plates, DMSO was used as the vehicle control.
All steps were performed as previously described. , In summary, data from every compound well were normalized to those from in-plate DMSO controls (wells containing the same amount of DMSO as compound wells). Two positions were recorded in every well, and the average of those positions was used for calculating % of control (median value/DMSO median) × 100. Each plate contained 16 DMSO control wells. Median curvilinear velocity (VCL) was used as the primary readout for the NPSC Diversity Set screened at 6 μM, and percentage progressive motility (PM) was used for all other libraries screened. Hits from the primary screening were chosen based on the % change compared to the control. In these experiments, an RSM of ≥20% compared to negative controls (DMSO) was chosen as a cutoff for potential progression.
In a screening program of this scale, a significant number of compounds are likely to have a negative effect on sperm motility, but a number will show general toxicity. […]

HepG2 cells = test: HepG2 cytotoxicity assay (resazurin, 72 h); type: cell-based, human; conditions: Homo sapiens, HepG2, 72 h; read-out: HepG2 pEC50 (converted)
Excerpt: Our overarching aims for investigating our chemical series and deciding which ones had the potential for further progression were to achieve adequate potency in our motility assay, suitable solubility, and minimal cytotoxicity in HepG2 cells. This third point was often the most challenging, as multiple series had cytotoxicity in HepG2 cells. This observation is perhaps not surprising; many potential targets in sperm cells can also be found in somatic cells. Our cytotoxicity assay is run with an incubation time of 72 h, to give time for gross cytotoxic effects to become apparent.
Compound dilution curves were plated directly using a Labcyte Echo 550 acoustic dispenser (125 nL) in 384-well white clear-bottom plates (Greiner). HepG2 cells (ATCCHepG2 HB-8065) were cultured in minimum essential medium (supplemented with glutamax) with 10% FCS and plated (25 μL) using a WellMate dispenser ([…]) and incubated for 72 h. Doxorubicin was used as a positive control drug. Resazurin was then added to each well at a final concentration of 45 μM, and fluorescence was measured using a PHERAstar LS (BMG Labtech) after 4 h of further incubation (excitation of 528 nm and emission of 590 nm). Raw data were normalized to controls and expressed as % growth.
Figure S2: Concentration-response curves from high throughput HepG2 viability assay. Each compound was tested in duplicate and the curves of each replicate are shown. The reported values in the tables are an average of the 2 pEC50 values obtained. […]
determine 0% effect, positive control used to determine 100% effect).
Hit compounds 1a, 6b and 7a were repurchased from commercial suppliers including enamine and […]

Aqueous solubility = type: physicochemical
[1] = 10 min, 10 min incubation, reported <X (neg. log of top concentration) if largest reduction <70%, read-out: RSM pEC50 10 mins (converted)
[2] = 3 h incubation, reported <X if largest reduction <70%, read-out: RSM pEC50 3 hrs (converted)
[3] = 6 h incubation, reported <X if largest reduction <70%, read-out: RSM pEC50 6 hrs (converted)

EC50 (human sperm; [1]): > 31.6 µM
EC50 (human sperm; [2]): > 31.6 µM
EC50 (human sperm; [3]): > 31.6 µM
solubility (Aqueous solubility): 60 µM (≈ 13.1 µg/mL)
Compound: Nc1nc2c(Cl)c(Cl)ccc2s1 [Compound 4b]
EC50 (HepG2 cells): 50.1 µM

EC50 (human sperm; [1]): 10 µM
EC50 (human sperm; [2]): 6.31 µM
EC50 (human sperm; [3]): 5.01 µM
solubility (Aqueous solubility): 18 µM (≈ 5.21 µg/mL)
Compound: CC(C)C(=O)Nc1nc2c(Cl)c(Cl)ccc2s1 [Compound 4c]
EC50 (HepG2 cells): 50.1 µM

EC50 (human sperm; [1]): 10 µM
EC50 (human sperm; [2]): 3.98 µM
EC50 (human sperm; [3]): 3.98 µM
solubility (Aqueous solubility): 12 µM (≈ 3.45 µg/mL)
Compound: O=C(Nc1nc2c(Cl)c(Cl)ccc2s1)C1CC1 [Compound 4d]
EC50 (HepG2 cells): 50.1 µM

EC50 (human sperm; [1]): > 31.6 µM
EC50 (human sperm; [2]): 6.31 µM
EC50 (human sperm; [3]): 6.31 µM
solubility (Aqueous solubility): 4.5 µM (≈ 1.36 µg/mL)
Compound: CC(C)CC(=O)Nc1nc2c(Cl)c(Cl)ccc2s1 [Compound 4e]
EC50 (HepG2 cells): > 100 µM

EC50 (human sperm; [1]): 10 µM
EC50 (human sperm; [2]): 5.01 µM
EC50 (human sperm; [3]): 3.98 µM
solubility (Aqueous solubility): 4.2 µM (≈ 1.32 µg/mL)
Compound: O=C(Nc1nc2c(Cl)c(Cl)ccc2s1)C1CCCC1 [Compound 4f]
EC50 (HepG2 cells): 50.1 µM

EC50 (human sperm; [1]): 10 µM
EC50 (human sperm; [2]): 3.98 µM
EC50 (human sperm; [3]): 3.98 µM
solubility (Aqueous solubility): 0.6 µM (≈ 0.194 µg/mL)
Compound: O=C(Nc1nc2c(Cl)c(Cl)ccc2s1)c1ccccc1 [Compound 4g]
EC50 (HepG2 cells): 100 µM

EC50 (human sperm; [1]): > 31.6 µM
EC50 (human sperm; [2]): > 31.6 µM
EC50 (human sperm; [3]): > 31.6 µM
solubility (Aqueous solubility): 190 µM (≈ 49.8 µg/mL)
Compound: NC(=O)Nc1nc2c(Cl)c(Cl)ccc2s1 [Compound 4h]
EC50 (HepG2 cells): 63.1 µM

EC50 (human sperm; [1]): > 31.6 µM
EC50 (human sperm; [2]): > 31.6 µM
EC50 (human sperm; [3]): > 31.6 µM
solubility (Aqueous solubility): 5.5 µM (≈ 1.35 µg/mL)
Compound: Cc1ccc2sc(NC(=O)C3CC3)nc2c1C [Compound 4m]
EC50 (HepG2 cells): > 100 µM

The remaining lines, values behind:

Compound: O=C(Nc1nc2c(Cl)cccc2s1)C1CC1 [Compound 4i]
EC50 (human sperm; [1]): > 31.6 µM
EC50 (human sperm; [2]): > 31.6 µM
EC50 (human sperm; [3]): > 31.6 µM
EC50 (HepG2 cells): > 100 µM
solubility (Aqueous solubility): 5.1 µM (≈ 1.29 µg/mL)

Compound: O=C(Nc1nc2cc(Cl)ccc2s1)C1CC1 [Compound 4j]
EC50 (human sperm; [1]): > 31.6 µM
EC50 (human sperm; [2]): > 31.6 µM
EC50 (human sperm; [3]): > 31.6 µM
EC50 (HepG2 cells): > 100 µM
solubility (Aqueous solubility): 3.4 µM (≈ 0.859 µg/mL)

Compound: O=C(Nc1nc2c(F)c(F)ccc2s1)C1CC1 [Compound 4k]
EC50 (human sperm; [1]): > 31.6 µM
EC50 (human sperm; [2]): > 31.6 µM
EC50 (human sperm; [3]): > 31.6 µM
EC50 (HepG2 cells): > 100 µM
solubility (Aqueous solubility): 8.5 µM (≈ 2.16 µg/mL)

Compound: O=C(Nc1nc2cc(F)c(F)cc2s1)C1CC1 [Compound 4l]
EC50 (human sperm; [1]): > 31.6 µM
EC50 (human sperm; [2]): > 31.6 µM
EC50 (human sperm; [3]): > 31.6 µM
EC50 (HepG2 cells): > 100 µM
solubility (Aqueous solubility): 4 µM (≈ 1.02 µg/mL)

Compound: CCN(CC)C(=O)c1cc(Nc2ccnc3cc(Cl)ccc23)ccc1O [Compound 5d]
EC50 (human sperm; [1]): > 31.6 µM
EC50 (human sperm; [2]): > 31.6 µM
EC50 (human sperm; [3]): > 31.6 µM
EC50 (HepG2 cells): > 100 µM
solubility (Aqueous solubility): 4.9 µM (≈ 1.81 µg/mL)

Compound: Oc1ccc(Nc2ccnc3cc(Cl)ccc23)cc1 [Compound 5e]
EC50 (human sperm; [1]): > 31.6 µM
EC50 (human sperm; [2]): > 31.6 µM
EC50 (human sperm; [3]): 0.316 µM
EC50 (HepG2 cells): 79.4 µM
solubility (Aqueous solubility): 3.5 µM (≈ 0.948 µg/mL)

Compound: OC1CCC(Nc2ccnc3cc(Cl)ccc23)CC1 (stereo not shown) [Compound 5f]
EC50 (human sperm; [1]): > 31.6 µM
EC50 (human sperm; [2]): > 31.6 µM
EC50 (human sperm; [3]): > 31.6 µM
EC50 (HepG2 cells): > 100 µM
solubility (Aqueous solubility): 210 µM (≈ 58.1 µg/mL)

Compound: COc1ccc(Nc2ccnc3cc(Cl)ccc23)cc1 [Compound 5g]
EC50 (human sperm; [1]): > 31.6 µM
EC50 (human sperm; [2]): > 31.6 µM
EC50 (human sperm; [3]): > 31.6 µM
EC50 (HepG2 cells): > 100 µM
solubility (Aqueous solubility): 4.9 µM (≈ 1.4 µg/mL)

Compound: Oc1ccc(Nc2ccnc3cc(Cl)ccc23)cn1 [Compound 5i]
EC50 (human sperm; [1]): > 31.6 µM
EC50 (human sperm; [2]): > 31.6 µM
EC50 (human sperm; [3]): > 31.6 µM
EC50 (HepG2 cells): > 100 µM
solubility (Aqueous solubility): 220 µM (≈ 59.8 µg/mL)

Compound: Oc1ccc(Nc2ccnc3cc(Cl)ccc23)nc1 [Compound 5j]
EC50 (human sperm; [1]): > 31.6 µM
EC50 (human sperm; [2]): > 31.6 µM
EC50 (human sperm; [3]): > 31.6 µM
EC50 (HepG2 cells): > 100 µM
solubility (Aqueous solubility): 6.7 µM (≈ 1.82 µg/mL)

Compound: Clc1ccc2c(Nc3ccc4[nH]ccc4c3)ccnc2c1 [Compound 5k]
EC50 (human sperm; [1]): > 31.6 µM
EC50 (human sperm; [2]): > 31.6 µM
EC50 (human sperm; [3]): > 31.6 µM
EC50 (HepG2 cells): 12.6 µM
solubility (Aqueous solubility): 11 µM (≈ 3.23 µg/mL)

Compound: Cc1ccc(Nc2cc(C)nn2-c2nc(C)cc(C)n2)cc1 [Compound 6b, 1-(4,6-Dimethylpyrimidin-2-yl)-3-methyl-N-(p-tolyl)-1H-pyrazol-5-amine]
EC50 (human sperm; [1]): > 31.6 µM
EC50 (human sperm; [2]): > 31.6 µM
EC50 (human sperm; [3]): 1.58 µM
EC50 (HepG2 cells): > 100 µM
solubility (Aqueous solubility): 1.1 µM (≈ 0.323 µg/mL)
